Like-named read-outs stand apart in the source and are kept apart here.

Test [1] relates to HBCx-95 xenografts (triple negative breast cancer PDX). Kind of test: Capecitabine treatment of HBCx-95 patient-derived xenografts (relative tumor volume, response). The class given is in vivo, Swiss nude mice. The following applies: HBCx-95 xenograft, mouse #40, oral 540 mg/kg/day, second round after recurrence. An excerpt: Female Swiss nude mice were purchased from Charles River Laboratories and maintained under specific pathogen-free conditions. Their care and housing were in accordance with institutional guidelines and the rules of the French Ethics Committee (project authorization no. 02163.02). A PDX model of luminal breast cancer (HBCx-22) was previously established at Institut Curie from untreated early-stage luminal breast cancer with informed consent from the patient. Acquisition of a resistant phenotype for a derivative of HBCx-22, HBCx-22-TamR, was previously established and maintained. A PDX from a residual triple negative breast cancer post neo-adjuvant chemotherapy (HBCx-95) was previously established at Institut Curie with informed consent from the patient. HBCx-95 xenografts (n=6) were treated with Capecitabine (Xeloda, Roche Laboratories) orally at a dose of 540 mg/kg/day, 5 days a week for 6 weeks. Relative tumor volumes (RTV, mm3) were calculated. Mice with recurrent tumors were treated for a second round of Capecitabine when PDX reached a volume of over 200 mm^3 (mice #35, #40 & #33).

For test [2], the system named is HBCx-22 / HBCx-22-TamR luminal ER+ breast PDX. To be noted: cited from earlier work.

For the compound `CCCCCOC(=O)Nc1nc(=O)n([C@@H]2O[C@H](C)[C@@H](O)[C@H]2O)cc1F` [Capecitabine], the “response of recurrent PDX tumor to a second round of Capecitabine” value in test [1] was “did not respond”.

`CC/C(=C(\c1ccccc1)c1ccc(OCCN(C)C)cc1)c1ccccc1` [Tamoxifen]: the “response of PDX to Tamoxifen” value in test [2] (HBCx-22-TamR tumor derivative, previously characterized) is listed as “acquired resistance”; in test [2] (HBCx-22 luminal ER+ breast PDX) it was “responsive”.

Values taken from patent US20220206003A1, “BIOMARKERS FOR PREDICTING RESISTANCE TO CANCER DRUGS” (INSTITUT CURIE, priority 2019, published 2022).
